Consider 17 compounds from article doi:10.1101/2025.10.23.684218v2, “Development of a dual chemical probe for the USP16 and HDAC6 zinc-finger ubiquitin-binding domain” (biorxiv, 2025).

For assay [1], the target named is T1, USP16-UBD (USP16 25-185) (Homo sapiens, UniProt Q9Y5T5). The experiment in a line: biochemical. Further details: SPR, steady-state binding to immobilised biotinylated UBD proteins. Conditions: read-out: SPR Kd µM (USP16).
The target of assay [2] is T1, USP16-UBD (USP16 25-185). Kind of assay: SPR, steady state. The assay is classed as binding. (In general: Surface plasmon resonance follows binding to a sensor surface in real time, without labels.)
Assay [3] addresses T2, HDAC6-UBD (HDAC6 1109-1215) (Homo sapiens, UniProt Q9UBN7).
T2 sequence (Q9UBN7 1109-1215): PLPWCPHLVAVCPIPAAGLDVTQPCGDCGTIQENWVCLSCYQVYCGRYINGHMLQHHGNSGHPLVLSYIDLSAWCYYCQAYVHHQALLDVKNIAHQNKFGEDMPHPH
The experiment in a line: SPR, steady state. The assay is classed as binding.

Assay [4] has as its target T2, HDAC6-UBD (HDAC6 1109-1215). Kind of assay: biochemical. Conditions: read-out: SPR Kd µM (HDAC6). Further details: SPR, steady-state binding to immobilised biotinylated UBD proteins.
Assay [5] shares this target. Kind of assay: SPR, steady state. Conditions: pH […] °C, […] DMSO. The assay is classed as binding.
For assay [6], the target named is T1, USP16-UBD (USP16 25-185). The experiment in a line: SPR, steady state. In kind it is binding. Conditions: pH […] °C, […] DMSO.

T1 sequence (Q9Y5T5 25-185): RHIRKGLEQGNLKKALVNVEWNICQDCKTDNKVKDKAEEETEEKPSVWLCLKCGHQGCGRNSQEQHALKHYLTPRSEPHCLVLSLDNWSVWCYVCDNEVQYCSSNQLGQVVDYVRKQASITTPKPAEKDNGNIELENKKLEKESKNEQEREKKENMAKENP

As for `COc1ccccc1CNC(=O)Cn1c(CCC(=O)O)nc2c(F)cccc2c1=O` [UBXXML299], the Kd (as a rule, the concentration at which binding is half-saturated) on USP16-UBD (USP16 25-185) [1] turned out to be 11 µM.

Turning to `CC(NC(=O)Cn1c(CCC(=O)O)nc2c(Cl)cccc2c1=O)c1c(F)cccc1F` (stereo not shown) [compound 14, 3-(8-chloro-3-(2-((1-(2,6-difluorophenyl)ethyl)amino)-2-oxoethyl)-4-oxo-3,4-dihydroquinazolin-2-yl)propanoic acid], on USP16-UBD (USP16 25-185) [2], the Kd is < 100 nM.

For the compound `CCOc1ccccc1CNC(=O)Cn1c(CCC(=O)O)nc2c(Cl)cccc2c1=O` [compound 7, 3-(8-chloro-3-(2-((2-ethoxybenzyl)amino)-2-oxoethyl)-4-oxo-3,4-dihydroquinazolin-2-yl)propanoic acid], the dissociation constant Kd in assay [3] was determined as 650 ± 270 nM; at USP16-UBD (USP16 25-185) [2], 2900 ± 1200 nM.

On to `C[C@H](NC(=O)Cn1c(CCC(=O)O)nc2c(Cl)cccc2c1=O)c1ccccc1F` [compound 12, (S)-3-(8-Chloro-3-(2-((1-(2-fluorophenyl)ethyl)amino)-2-oxoethyl)-4-oxo-3,4-dihydroquinazolin-2-yl)propanoic Acid], for which the results for the Kd (in assay [3]; on USP16-UBD (USP16 25-185) [2]) were 50 ± 10 nM and 210 ± 30 nM, respectively.

In the case of `C[C@@H](c1ccccc1F)N(C)C(=O)Cn1c(CCC(=O)O)nc2c(Cl)cccc2c1=O` [compound 13, (S)-3-(8-Chloro-3-(2-((1-(2-fluorophenyl)ethyl)(methyl)amino)-2-oxoethyl)-4-oxo-3,4-dihydroquinazolin-2-yl)propanoic Acid], the Kd in assay [3] amounted to 31300 ± 2500 nM; at USP16-UBD (USP16 25-185) [2] it was 2900 ± 490 nM.

For the compound `Cn1c(CCC(=O)O)nc2ccccc2c1=O` [DATR31], the Kd in assay [4] was 2.7 µM; on USP16-UBD (USP16 25-185) [1], 130 µM.

As to `O=C(O)CCc1nc2c(Cl)cccc2c(=O)n1CC(=O)NCC1CCCOC1` (stereo not shown) [compound 6, 3-(8-Chloro-4-oxo-3-(2-oxo-2-(((tetrahydro-2H-pyran-3-yl)methyl)amino)ethyl)-3,4-dihydroquinazolin-2-yl)propanoic Acid], the Kd in assay [3] was determined as 2100 ± 70 nM; on USP16-UBD (USP16 25-185) [2], 7800 ± 990 nM.

For the compound `Cc1ccccc1CNC(=O)Cn1c(CCC(=O)O)nc2c(Cl)cccc2c1=O` [compound 8], on USP16-UBD (USP16 25-185) [2], binding was characterised by a dissociation constant (Kd) of 1800 ± 960 nM.

At USP16-UBD (USP16 25-185) [2], `O=C(O)CCc1nc2c(Cl)cccc2c(=O)n1CC(=O)NCc1ccccc1F` [compound 10] yielded a Kd of 400 ± 150 nM.

Take `CN(Cc1ccccc1F)C(=O)Cn1c(CCC(=O)O)nc2c(Cl)cccc2c1=O` [compound 11, 3-(8-Chloro-3-(2-((2-fluorobenzyl)(methyl)amino)-2-oxoethyl)-4-oxo-3,4-dihydroquinazolin-2-yl)propanoic Acid]: the dissociation constant Kd was found to be 32300 ± 18200 nM in assay [3] and 2500 ± 340 nM at USP16-UBD (USP16 25-185) [2].

In the case of `COc1ccccc1C(C)NC(=O)Cn1c(CCC(=O)O)nc2c(Cl)cccc2c1=O` (stereo not shown) [compound 3, 3-(8-chloro-3-(2-((1-(2-methoxyphenyl)ethyl)amino)-2-oxoethyl)-4-oxo-3,4-dihydroquinazolin-2-yl)propanoic acid], the dissociation constant (Kd) in assay [3] came out at 50 ± 30 nM; on USP16-UBD (USP16 25-185) [2], 440 nM.

`O=C(O)CCc1nc2c(Cl)cccc2c(=O)n1CC(=O)NCc1ccccc1Cl` [compound 9] returned a Kd on USP16-UBD (USP16 25-185) [2] of 1200 ± 600 nM.

With `COc1ccccc1CNC(=O)Cn1c(CCC(=O)O)nc2ccccc2c1=O` [UBXXML264], on USP16-UBD (USP16 25-185) [1], the Kd is 13 µM.

As for `O=C(O)CCc1nc2ccccc2c(=O)n1CC(=O)NCC1CCCCC1` [UBXXML9098], the dissociation constant Kd on USP16-UBD (USP16 25-185) [1] was determined as 4.8 µM.

`O=C(O)CCc1nc2ccccc2c(=O)n1CC(=O)NCc1ccccc1` [UBXXML47]: the dissociation constant Kd at USP16-UBD (USP16 25-185) [1] stood at 11 µM.

Take `COc1ccccc1C(C)N(C)C(=O)Cn1c(CCC(=O)O)nc2c(Cl)cccc2c1=O` (stereo not shown) [compound 4, 3-(8-chloro-3-(2-((1-(2-methoxyphenyl)ethyl)(methyl)amino)-2-oxoethyl)-4-oxo-3,4-dihydroquinazolin-2-yl)propanoic acid]: the KD result in assay [5] was “complete loss of binding activity for both USP16-UBD and HDAC6-UBD”; at USP16-UBD (USP16 25-185) [6], “complete loss of binding activity for both USP16-UBD and HDAC6-UBD”.

As to `COc1ccccc1CN(C)C(=O)Cn1c(CCC(=O)O)nc2c(Cl)cccc2c1=O` [compound 2], binding at USP16-UBD (USP16 25-185) [2] was put at a Kd of 5600 ± 2100 nM.
